The record followed here is patent US11957699B2, “Composition comprising punicalagin for inhibiting PAR2 activity” (INDUSTRY-ACADEMIC COOPERATION FOUNDATION, YONSEI UNIVERSITY, priority 2018, dated 2024).

Experiment [1] addresses T1, PAR2 (Homo sapiens, UniProt P55085).
T1 sequence (P55085 26-397): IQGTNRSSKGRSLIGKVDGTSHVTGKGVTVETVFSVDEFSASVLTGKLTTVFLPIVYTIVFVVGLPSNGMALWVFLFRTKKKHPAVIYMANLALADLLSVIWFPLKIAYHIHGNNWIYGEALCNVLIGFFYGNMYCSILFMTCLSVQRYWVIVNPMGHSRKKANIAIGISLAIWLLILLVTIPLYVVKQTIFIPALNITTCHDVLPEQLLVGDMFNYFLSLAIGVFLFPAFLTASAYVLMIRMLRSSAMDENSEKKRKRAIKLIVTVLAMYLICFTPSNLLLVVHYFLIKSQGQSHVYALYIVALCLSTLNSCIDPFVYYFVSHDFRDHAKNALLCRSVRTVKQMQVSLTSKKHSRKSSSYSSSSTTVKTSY
Nature of the experiment: Increase of intracellular calcium ions by PAR2-AP in HT-29 cells (Fluo4-NW). It is filed as cell-based. Also noted: endogenous in cells; host or cells: HT-29 colon cancer cells. How it is done:
After colon cancer cells (HT-29) were cultured for 48 hours in a 96-well micro plate with the RPMI1640 culture medium, the culture medium was removed, and then, 100 μL of the Flou4-NW dye mixture was added. While blocking the light, it was stabilized for 1 hour such that a calcium ion dye (Ca^2+ dye) was loaded into the cells. Next, after treating punicalin (0, 3, 10, and 30 μM), punicalagin (0, 0.3, 1, 2, 3, and 10 μM), or ellagic acid (0, 30, and 100 μM) for 10 minutes by concentration, each well was treated with 30 μM PAR2-AP (PAR2-activating peptide, SLIGRL-NH2) to measure the concentration change in intracellular calcium ions.

Experiment [2] concerns SD rats with acute pancreatitis induced by caerulein. Description: Acute pancreatitis induced by caerulein in rats. The class given is in vivo. To be noted: 10 mg/kg, 30 minutes before 40 μg/kg caerulein, pancreas extracted after 2 hours. How it is done:
In 6-week-old SD rats, it was confirmed whether punicalagin has an effect of alleviating symptoms of acute pancreatitis induced by caerulein.
Specifically, […], and after 30 minutes, 40 μg/kg of caerulein, which is an acute pancreatitis-inducing substance, was intraperitoneally injected, and then, after 2 hours, the pancreas of the experimental animals was extracted and analyzed.
First, the weight of the extracted pancreas was measured to determine whether punicalagin inhibits edema, which is a symptom of acute pancreatitis. As a result, it was confirmed that when 10 mg/kg punicalagin was administered to […], in which acute pancreatitis was induced by caerulein, the edema of the pancreas was inhibited by 95% or more (panel A of FIG. 8).
Next, as a result of observing the nucleus and cytoplasm of the extracted pancreatic tissue with a microscope through H&E staining in order to confirm the damage to pancreatic cells by caerulein, it was confirmed that in the rats administered with caerulein, the distance between pancreatic cells was increased and the cells were damaged due to symptoms of acute pancreatitis.

Experiment [3] has as its system C57BL6N mice with pruritus induced by PAR2-AP. Description: Pruritus induced by PAR2-AP in mice (number of scratches). The class given is in vivo. As for the experimental part: In seven-week-old C57BL6N mice, it was confirmed whether punicalagin (PG) has an effect of alleviating pruritus symptoms induced by PAR2 receptor activation by PAR2-AP (activating peptide). In addition, the effects of punicalin (PNC) and ellagic acid (EA), which are metabolites of punicalagin and contained in pomegranate peel in a large amount, were also confirmed.
Specifically, each of 0, 1, 3, and 10 mg/kg punicalagin (n=4) was dissolved in physiological saline and intraperitoneally injected, and after 30 minutes, 100 μg of PAR2-AP was intradermally injected to induce pruritus. As control groups, a group which was intraperitoneally injected with physiological saline only (n=4) and a group which was intraperitoneally injected with 10 mg/kg punicalagin (n=4) were established, and the number of scratches was measured for 40 minutes.

The target of experiment [4] is T1, PAR2. Nature of the experiment: Intracellular calcium increase by trypsin (PAR2 receptor activation) in HaCaT keratinocytes. The class given is cell-based. Also on record: endogenous in cells; host or cells: HaCaT keratinocytes. To be noted: HaCaT, 0.1 μM trypsin, 10 minutes pretreatment. As for the experimental part:
After keratinocytes (HaCaT) were cultured for 48 hours in a 96-well micro plate with the DMEM culture medium, the culture medium was removed, and then, 100 μL of the Flou4-NW dye mixture was added. While blocking the light, it was stabilized for 1 hour such that a calcium ion dye (Ca^2+ dye) was loaded into the cells. 100 μM punicalagin was treated, and the concentration change of intracellular calcium ions was measured for 5 minutes (panel A of FIG. 17). Next, punicalin (0, 1, 3, 10, 20, 30, 100, and 300 μM) by concentration (panel B of FIG. 17) or punicalagin (0, 1, 3, 5, 10, 20, 30, and 100 μM) by concentration (panel C of FIG. 17) was treated for 10 minutes, and then, each well was treated with 0.1 μM trypsin to measure the concentration change of intracellular calcium ions according to PAR2 receptor activation.
A general note: A change in cytosolic calcium serves as a functional read-out for many receptors and channels.

Turning to `O=c1oc2c(O)c(O)cc3c(=O)oc4c(O)c(O)cc1c4c23` [ellagic acid, reference compound], at PAR2 [1] (HT-29 cells, PAR2-AP, high concentration (100 μM)), the “inhibition of the PAR2 receptor” value is “did not inhibit”. Besides, in experiment [2], the “inhibition of edema of the pancreas (pancreas weight)” value is given as “not significantly inhibited”. Further, the numbers of scratches entry in experiment [3] (3 mg/kg ellagic acid group (n=3)) is given as “not significantly reduced”.
As for `O=C1OC[C@H]2OC(O)[C@H](O)[C@@H](O)[C@@H]2OC(=O)c2cc(O)c(O)c(O)c2-c2c(O)c(O)c3oc(=O)c4c(c(O)c(O)c5oc(=O)c2c3c54)-c2c1cc(O)c(O)c2O` (mixture of isomers) [punicalin, reference compound], the “inhibitory effect on the PAR2 receptor” value on PAR2 [1] (found by compound library search and molecular physiological experiments) is “relatively weak inhibitory effect”. On PAR2 [4], the “inhibition of PAR2 receptor activity by trypsin” value was “inhibited PAR2 receptor activity by trypsin in a concentration-dependent manner”. Besides, the “number of scratches for 40 minutes” value in experiment [3] (10 mg/kg, PAR2-AP group about 240) is recorded as “about 197 times”.
